≈ marks a conversion by molar mass, not a printed value.
System: Aspergillus fumigatus (ATCC 13073)
Assay: In vivo anti-fungal activity, therapeutic treatment of infected immunocompromised neutropenic mice
Parameters: species or system A/J mice
Conditions: for CFU in lung, % Inhibition of response / DNA in Lung / DNA in Lung, % Inhibition of response / GM in Serum / GM in serum, % Inhibition of response / CFU in lung: therapeutic; for CFU in lung: mean ± SEM, n = 6
Method: Aspergillus fumigatus (ATCC 13073 [strain: NIH 5233], American Type Culture Collection, Manassas, Va., USA) was grown on Malt agar (Nissui Pharmaceutical, Tokyo, Japan) plates for 6-7 days at RT (24±1° C.). Spores were aseptically dislodged from the agar plates and suspended in sterile distilled water with 0.05% Tween 80 and 0.1% agar. On the day of infection, spore counts were assessed by haemocytometer and the inoculum was adjusted to obtain a concentration of 1.67×10^8 spores mL^−1 of physiological saline. […] On day 0, animals were infected with the spore suspension (30 μL intra-nasally).
Test substances were administered intra-nasally (35 μL of a suspension (0.0032-10.0 mg/mL of drug substance in physiological saline) once daily, on days 1, 2 and 3 only (thereby representing a therapeutic treatment regimen). For extended prophylactic treatment, test compounds (35 μL of a suspension of 0.0032 or 0.016 mg/mL in physiological saline) were administered intra-nasally once daily for seven days. One group was dosed 30 min before infection on day 0 but not subsequently, while a second group was further dosed on days 1, 2 and 3 after infection. The effects of these treatment paradigms were compared with those obtained when treatment was restricted in other groups to either one day or 30 min before inoculation and then on days 1, 2 and 3 post infection in both cases. In a final group, dosing was limited still further with animals dosed twice, one day and 30 min before infection only.
Animal body weights were monitored daily and at 6 hr after the last dose of drug was administered on day 3, the animals were anesthetised, the tracheas cannulated and BALF blood and lung tissue were collected. The levels of IL-6 and TNFα in serum were determined using Quantikine® mouse IL-6 or TNF-α ELISA kit (R&D systems, Inc., Minneapolis, Minn., USA) respectively. Aspergillus GM in serum was determination using Platelia GM-EIA kits (Bio-Rad Laboratories, Redmond, Wash., USA). Cut-off index (COI) was calculated by the formula: Cut-off index=OD in sample/OD in cut-off control provided in kit. For tissue fungal load assays, 100 mg of lung tissue was removed aseptically and homogenized in 0.2 mL of 0.1% agar in sterile distilled water. Serially diluted lung homogenates were plated on Malt agar plates (50 μL/plate), and incubated at 24±1° C. for 72 to 96 h. The colonies of A. fumigatus on each plate were counted and the fungal titre presented herein as CFUs per gram of lung tissue.
For determination of Aspergillus fumigatus DNA content, DNA was extracted from either infected lungs or Aspergillus fumigatus with the Isoplant (Nippon Gene) according to the manufacture's instruction. The tissues cut to <3 mm in any length were mixed with solution I (extraction buffer: 300 μL). Solution II (lysis buffer; benzyl chloride: 150 μL) was then added to the mixtures followed by mixing with a vortex mixer for 5 seconds. After incubation at 50° C. for 15 min, solution III (sodium acetate, pH5.2: 150 μL) was added the mixtures agitated vigorously for 1-3 seconds and then incubated on ice for 15 min. After the incubation, the mixtures were centrifuged at 12,000 g for 15 min at 4° C. DNA in the upper aq phases of the supernatants was precipitated with 100% ethanol (×2.5 vol), washed with 70% ethanol and dissolved in 5-10 μL of TE buffer.
DNA amplification was performed with Premix Ex Taq™ (Takara Bio) in the 96-well optical reaction plate. Aspergillus fumigatus 18S rRNA gene fragments were amplified with the primer pair; 5′-GGCCCTTAA ATAGCCCGGT-3′ (SEQ ID No. 1) and 5′-[…]-3′ (SEQ ID No. 2), and hybridization probe; 5′-FAM-AGCCAGCGGCCCGCAAATG-TAMRA-3′ (SEQ ID No. 3). Real time PCR was performed in a (25 μL contained 50 ng of mouse DNA with 200 nM of probe) under the following conditions: initial incubation for 2 min at 50° C., initial denaturation for 10 min at 95° C., followed by 55 cycles of 15 seconds at 95° C. and 1 min at 65° C. […]

[1] = Therapeutic Regimen, intranasal

In the case of `Cc1cc(N2CCN(c3ccc(C(=O)N[C@H]4CCCC[C@@H]4O)cc3)CC2)ccc1OC[C@@H]1CO[C@@](Cn2cncn2)(c2ccc(F)cc2F)C1` [Compound (Ia), 4-(4-(4-(((3R,5R)-5-((1H-1,2,4-triazol-1-yl)methyl)-5-(2,4-difluorophenyl)tetrahydrofuran-3-yl)methoxy)-3-methylphenyl)piperazin-1-yl)-N-((1S,2S)-2-hydroxycyclohexyl) benzamide], the “CFU in lung, % Inhibition of response” value (Drug Conc 3.2 μg/mL intranasal) is reported as 19%, the “DNA in Lung” value (Drug Conc 3.2 μg/mL intranasal) is reported as 41.7 ± 29.0 pg/50 ng mouse DNA and the “DNA in Lung, % Inhibition of response” value (Drug Conc 3.2 μg/mL intranasal) is reported as 41%. For the same molecule, the GM in Serum (Drug Conc 3.2 μg/mL intranasal) was 2.85 ± 2.76 COI, the “GM in serum, % Inhibition of response” value (Drug Conc 3.2 μg/mL intranasal) was 16% and the CFU in lung (Drug Conc 3.2 μg/mL intranasal) was 25.8 ± 20.8 /mg of lung. For the same molecule, the “CFU in lung, % Inhibition of response” value (Drug Conc 16 μg/mL intranasal) was 24%, the “DNA in Lung” value (Drug Conc 16 μg/mL intranasal) was 56.1 ± 53.4 pg/50 ng mouse DNA and the “DNA in Lung, % Inhibition of response” value (Drug Conc 16 μg/mL intranasal) was 21%. For the same molecule, the GM in Serum (Drug Conc 16 μg/mL intranasal) was 3.01 ± 2.14 COI, the “GM in serum, % Inhibition of response” value (Drug Conc 16 μg/mL intranasal) was 11% and the CFU in lung (Drug Conc 16 μg/mL intranasal) was 24.2 ± 15.8 /mg of lung. For the same molecule, the “CFU in lung, % Inhibition of response” value (Drug Conc 80 μg/mL intranasal) was 71%, the “DNA in Lung” value (Drug Conc 80 μg/mL intranasal) was 4.10 ± 4.60 pg/50 ng mouse DNA and the “DNA in Lung, % Inhibition of response” value (Drug Conc 80 μg/mL intranasal) was 94%. For the same molecule, the GM in Serum (Drug Conc 80 μg/mL intranasal) was 0.53 ± 0.38 COI, the “GM in serum, % Inhibition of response” value (Drug Conc 80 μg/mL intranasal) was 84% and the CFU in lung (Drug Conc 80 μg/mL intranasal) was 9.30 ± 5.20 /mg of lung. For the same molecule, the “ID50 Values, A. fumigatus DNA in Lung” value [1] was 50 µg/mL (≈ 72.8 µM), the “ID50 Values, GM in serum” value [1] was 47 µg/mL (≈ 68.4 µM) and the “ID50 Values, Lung Fungal Load” value [1] was 51 µg/mL (≈ 74.3 µM).

For `CC[C@@H]([C@H](C)O)n1ncn(-c2ccc(N3CCN(c4ccc(OC[C@@H]5CO[C@@](Cn6cncn6)(c6ccc(F)cc6F)C5)cc4)CC3)cc2)c1=O` [Posaconazole, reference compound], the “ID50 Values, GM in serum” value [1] was 590 µg/mL (≈ 842 µM) and the “ID50 Values, Lung Fungal Load” value [1] was 390 µg/mL (≈ 557 µM).

— patent US10513511B2, “Aqueous suspension formulation comprising 4-(4-(4-(((3R,5R)-5-((1H-1,2,4-triazol-1-yl)methyl)-5-(2,4-difluoro-phenyl)tetrahydrofuran-3-yl)methoxy)-3-methylphenyl) or a pharmaceutically acceptable salt thereof” (PULMOCIDE LIMITED, priority 2015, dated 2019)
